Test results: PMC7066533 (Frontiers in Pharmacology, 2020)
Several values for one entry are separate records, joined by “and”; a condition that tells them apart may be missing. Identical values can stand only once. Like-named read-outs stand apart in the source and are kept apart here. Square brackets hold non-standard residues; d marks the D form. Peptide text beside a SMILES is read from it. βAla = NCCC(=O)O

Columns and labels:
[1] = target: KOPr in U87-MG human astrocytoma cells (Homo sapiens, UniProt P41145); experiment: cell-based; conditions: U-87 MG, read-out: Emax U87-MG
[2] = system: CD-1 adult male mice; conditions: mouse, in vivo
[3] = system: U87-MG cells; experiment: Cell proliferation assay ([3H]-thymidine incorporation) in U87-MG cells; type: cell-based, human
Protocol: A cell proliferation assay was carried out as previously reported ([Bedini et al., 2017]). Briefly, U87-MG cells or normal human astrocytes were plated on a 12-well plate and treated as described in the results section or maintained in cell culture medium containing 10% fetal bovine serum. Five hours before the end of the treatments, [methyl-^3H] thymidine (Perkin Elmer) (50 nM final concentration) was added to serum-free cell culture medium, and the plate was incubated at 37°C. Thereafter, the medium was removed, and the cells were washed twice with PBS. Then, 200 μl of PBS was added to each well, and the cells were scraped off and centrifuged at 13,000 g for 3 min at 4°C. The supernatants were then discarded, pellets were re-suspended in 500 μl of cold trichloroacetic acid (10% w/v), incubated on ice for 20 min and centrifuged at 13,000 g for 3 min at 4°C. The supernatant was then discarded, and the pellet was suspended in 500 μl of cold methanol and centrifuged at 3 min for 13,000 g at 4°C. Thereafter, the pellet was suspended in 200 μl of 1 N NaOH and heated at 55°C for 10 min. Samples were then neutralized with 200 μl of 1 N HCl and 350 μl of the labelled DNA incubated in counting vials with 4 ml of Filter Count scintillation liquid (Perkin Elmer Italia). Vials were vortexed and incubated overnight at room temperature, and the radioactivity was determined by liquid scintillation spectrometry.

[4] = system: CD-1 adult male mice; conditions: mouse, in vivo; remark: listed apart in the source
[5] = system: CD-1 adult male mice; conditions: mouse, in vivo; remark: listed apart in the source
[6] = system: CD-1 adult male mice; experiment: Hole-board test; type: in vivo, mouse; conditions: 10 mg/kg s.c.
Protocol: The hole-board test consisted of a […] plane with 16 flush-mounted cylindrical holes (3 cm diameter) distributed four by four in an equidistant, grid-like manner. Mice were placed on the center of the board one by one and allowed to move about freely for a period of 5 min. Two electric eyes, crossing the plane from midpoint to midpoint of the opposite sides, thus dividing the plane into four equal quadrants, automatically signaled the movement of the animal (counts in 5 min) on the surface of the plane (spontaneous motility). Miniature photoelectric cells in each of the 16 holes recorded (counts in 5 min) the exploration of the holes (exploratory activity) by the mice ([Guerrini et al., 2006]).

[7] = target: T1, KOPr (Homo sapiens, UniProt P41145); type: cell-based
[8] = target: T2, hDOPr (Homo sapiens, UniProt P41143); experiment: Displacement binding assay with [3H]diprenorphine on HEK-293/hDOPr membranes
T2 construct: expressed in transfected cells

[9] = system: p38MAPK phosphorylation; type: cell-based, human
[10] = system: CD-1 adult male mice; experiment: Warm-water tail-withdrawal test; type: in vivo, mouse
Protocol: The warm-water tail-withdrawal test was performed as previously described ([Bedini et al., 2010]). Briefly, a mouse’s tail was immersed in hot water (52 ± 0.5°C), and the latency to tail withdrawal was measured as an indicator of nociception. Prior to being treated, each mouse was tested, and the latency to tail withdrawal was recorded (control latency, CL). Animals not withdrawing their tails within 5 s were not used (6% of mice). Responding animals were then injected i.p. with either vehicle or one of the compounds (LOR17 or U50,488; 0–20 mg/kg). The KOR antagonist norBNI (10 mg/kg; i.p.) was injected 30 min or 24 h prior to administering LOR17.
Latency to withdrawal was measured at 5, 15, 30, 45, 60, and 90 min after drug administration and defined as the test latency (TL), with a cutoff time of 10 s.

[11] = system: hKOPr; type: cell-based, human
[12] = target: KOPr in normal human astrocytes (Homo sapiens, UniProt P41145); experiment: cell-based; conditions: read-out: Emax NHA
[13] = target: T1, KOPr; experiment: cell-based
[14] = system: ERK1/2 phosphorylation; experiment: ERK1/2 phosphorylation, western blot; type: cell-based, human
Protocol: HEK-293 cells stably expressing KOPr, U87-MG astrocytoma cells, or normal human astrocytes endogenously expressing KOPr were plated into 6-well plates until 60–70% confluence was reached. Then, the cells were serum-starved for 16–18 h and subsequently exposed to vehicle, LOR17 (1 μM; 0–120 min) or U50,488 (1 μM; 0–120 min). Alternatively, […] and U87-MG cells were exposed to norBNI (10 μM; 30 min prior to LOR17) and then treated with 1 μM LOR17, or they were exposed to increasing concentration of LOR17 (1–100 μM; 30 min). Proteins were extracted as previously reported ([Kuhar et al., 2015]), quantified by means of BCA assay (Pierce) and SDS-page gel electrophoresis performed as previously described for ERK1/2 ([Baiula et al., 2016]) and p38MAPK ([Schattauer et al., 2012]).
Membranes were then incubated with anti-phospho-ERK 1/2 (1:1,000) (Cell Signaling Technology, Danvers, MA, USA), anti-total ERK1/2 antibodies (1:1,000) (Cell Signaling Technology), anti-phospho-p38MAPK antibodies (1:1,000) (Cell Signaling Technology, Danvers, MA, USA), or anti-actin antibodies (1:2,500) (Santa Cruz Biotechnology, Dallas, TX, USA) at 4°C in the presence of BSA (5 g/100 ml) in Tris buffered saline containing Tween-20 (0.1 g/100 ml). […]

[15] = target: T3, hMOPr (Homo sapiens, UniProt P35372); experiment: Displacement binding assay with [3H]DAMGO on HEK-293/hMOPr membranes
T3 construct: expressed in transfected cells

[16] = system: normal human astrocytes; type: cell-based; conditions: SB203580 2 µM, 30 min prior to U50,488
[17] = norBNI 10 µM 15 min prior, SB203580 2 µM 30 min prior, LOR17 10 μM co-administered

T1 sequence (P41145 whole entry): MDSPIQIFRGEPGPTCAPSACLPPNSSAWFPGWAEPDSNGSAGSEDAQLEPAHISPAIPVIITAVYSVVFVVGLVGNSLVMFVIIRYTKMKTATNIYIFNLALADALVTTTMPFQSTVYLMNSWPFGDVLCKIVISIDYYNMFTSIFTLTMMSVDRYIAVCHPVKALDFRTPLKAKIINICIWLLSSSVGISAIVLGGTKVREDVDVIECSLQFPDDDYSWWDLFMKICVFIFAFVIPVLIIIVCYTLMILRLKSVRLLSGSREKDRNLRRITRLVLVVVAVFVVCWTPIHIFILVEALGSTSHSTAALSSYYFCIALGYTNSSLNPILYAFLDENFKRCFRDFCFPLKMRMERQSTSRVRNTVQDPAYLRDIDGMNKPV
T3 sequence (P35372 whole entry): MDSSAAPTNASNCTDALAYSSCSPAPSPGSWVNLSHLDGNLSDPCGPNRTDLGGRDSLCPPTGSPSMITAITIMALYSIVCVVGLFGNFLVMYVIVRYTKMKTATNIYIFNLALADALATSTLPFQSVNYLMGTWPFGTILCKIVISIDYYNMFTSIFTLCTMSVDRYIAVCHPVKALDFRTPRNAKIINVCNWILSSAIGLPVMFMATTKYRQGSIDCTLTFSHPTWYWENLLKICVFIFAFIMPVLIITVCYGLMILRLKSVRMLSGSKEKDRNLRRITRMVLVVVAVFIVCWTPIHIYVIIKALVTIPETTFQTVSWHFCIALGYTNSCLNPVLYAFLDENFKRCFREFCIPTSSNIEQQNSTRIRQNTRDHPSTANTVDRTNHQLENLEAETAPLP
T2 sequence (P41143 whole entry): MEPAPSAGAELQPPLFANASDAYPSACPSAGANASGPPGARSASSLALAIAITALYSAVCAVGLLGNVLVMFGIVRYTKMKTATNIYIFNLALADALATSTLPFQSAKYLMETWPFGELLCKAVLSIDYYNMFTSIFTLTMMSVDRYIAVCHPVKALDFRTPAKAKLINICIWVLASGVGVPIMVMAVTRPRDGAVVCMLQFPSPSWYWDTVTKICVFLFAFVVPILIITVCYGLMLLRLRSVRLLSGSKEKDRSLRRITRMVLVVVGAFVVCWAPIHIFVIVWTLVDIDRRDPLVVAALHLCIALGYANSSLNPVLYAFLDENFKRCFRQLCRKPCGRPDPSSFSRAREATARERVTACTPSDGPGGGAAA
KOPr in normal human astrocytes, sequence (P41145 whole entry): as the sequence (P41145 whole entry) above
KOPr in U87-MG human astrocytoma cells, sequence (P41145 whole entry): as above

## O=C1CNC(=O)[C@H](Cc2ccccc2)NC(=O)[C@@H](Cc2c[nH]c3ccccc23)NC(=O)CCN1 [LOR17, c[Phe-Gly-(β-Ala)-D-Trp]] (cyclo(FG[βAla][dW]))
[1]
  Emax: 87 ± 4%
[2]
  Effect on oxaliplatin-induced thermal hypersensitivity, single s.c. administration: fully reversed the oxaliplatin-dependent hypersensitivity
  Efficacy in cold plate test after repeated treatment: maintains its efficacy
  Licking latency (maximal effect): 18.2 ± 1.4 s and 19.6 ± 1.7 s
[2]; sc
  Dose from which licking latency increase takes effect: 1 mg/kg
  ED50, oxaliplatin-induced thermal hypersensitivity (cold plate test): 6.63 ± 0.23 mg/kg
[3]
  Effect on U50,488 (1 µM)-mediated increase of U87-MG cell proliferation: prevented the increase in U87-MG cell proliferation
  U87-MG cell proliferation rate vs vehicle: did not alter the U87-MG cell proliferation rate
[4]
  Number of writhes vs vehicle: significantly reduced the number of writhes
[4]; ip
  ED50, writhing test: 5.74 ± 0.46 mg/kg
[5]
  Mobility time: 91.6 ± 12.3 s
[6]; 0 min
  Board (locomotor activity): 89.2 ± 7.3 counts in 5 min
  Hole (exploratory activity): 37.2 ± 3.9 counts in 5 min
[6]; 30 min
  Board (locomotor activity): 97.2 ± 16.9 counts in 5 min
  Hole (exploratory activity): 39.0 ± 4.6 counts in 5 min
[7]
  log(τ/KA) β-arrestin 2: 3,432
  Δlog(τ/KA) β-arrestin 2: -2,67
  β-arrestin 2 recruitment at KOPr: very week β-arrestin 2 recruitment at KOPr and only at concentrations higher than 1 μM
[8]
  Ki: > 100 µM
[9]
  Effect on U50,488-induced p38MAPK phosphorylation: counteracted U50,488-induced p38MAPK phosphorylation in a concentration-dependent fashion
  p38MAPK phosphorylation vs vehicle: does not influence p38MAPK phosphorylation
[10]; mouse, in vivo
  Antinociception in the tail-withdrawal test: antinociceptive response in a dose- and time-dependent fashion
[10]; mouse, in vivo, ip
  ED50, warm-water tail-withdrawal test: 10.07 ± 0.36 mg/kg
[11]
  Bias Factor: 853
  ΔΔlog(τ/KA): 2,931
[12]
  Emax: 88 ± 6%
[13]
  log(τ/KA) G Protein: 8,856
  Δlog(τ/KA) G Protein: 0,261
[13]; HEK293, read-out: Emax HEK-293/KOR
  Emax: 85 ± 5%
[14]
  ERK1/2 phosphorylation levels vs vehicle: significant increase in ERK1/2 phosphorylation only after 15 min of exposure
[15]
  Ki: > 100 µM

## C[S+]([O-])c1ccc(-c2nc(-c3ccncc3)c(-c3ccc(F)cc3)[nH]2)cc1 (stereo not drawn) [SB203580, reference compound]
[3]; [17]
  Effect on U50,488 (1 µM)-mediated increase of U87-MG cell proliferation: prevented
[16]
  Effect on U50,488 (1 µM)-enhanced normal human astrocyte cell proliferation: abolished

## Oc1ccc2c3c1O[C@H]1c4[nH]c5c(c4C[C@@]4(O)[C@@H](C2)N(CC2CC2)CC[C@]314)C[C@@]1(O)[C@H]2Cc3ccc(O)c4c3[C@@]1(CCN2CC1CC1)[C@H]5O4 [norBNI, norbinaltorphimine, reference compound]
[3]; [17]
  Effect on U50,488 (1 µM)-mediated increase of U87-MG cell proliferation: prevented
[10]; norBNI 10 mg/kg i.p.
  Effect on LOR17-mediated antinociception in the tail-withdrawal test: prevented
[14]; norBNI 10 μM, 30 min prior to LOR17, HEK-293/hKOPr and U87-MG cells
  LOR17 (1 μM)-mediated increase in ERK1/2 phosphorylation after antagonist: fully reverted
